# Test results from US12303474B2, “S-enantiomerically enriched compositions of beta blockers for treating amyotrophic lateral sclerosis” (priority 2013, dated 2025).
# Read-outs that look alike come from different tables or passages of the source.
# How the values were obtained:
# [1] = system: G93A SOD1 B6SJL hybrid (G93A) model; conditions: 3 mg/kg/day; placebo 28 days;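 as to Median survival after onset of ALS symptoms: dosing began after ALS onset in G93A SOD1 mice, with survival as the endpoint, defined humanely as the animal failing to regain upright posture within 30 s when placed sideways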
# Excerpt: To study the effect of S-oxprenolol on survival, survival was monitored over time.
# [2] = system: G93A SOD1 B6SJL hybrid (G93A) model; conditions: 30 mg/kg/d; for Heart / gastrocnemius: end of study;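 as to Median survival after onset of ALS symptoms: dosing began after ALS onset in G93A SOD1 mice, with survival as the endpoint, defined humanely as the animal failing to regain upright posture within 30 s when placed sideways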
# Protocol: (§1) Transgenic mice over-expressing a high copy number (25 copies) of mutated human SOD1 gene with a G93A point mutation, i.e., B6SJL-TgN [SOD1-G93A]1 Gur (G1H-G93A transgenic mice, JR2726; Hemizygote) (Gurney M E, et al., Science, 264, 1772-1775, 1994) (“G93A SOD1 B6SJL hybrid (G93A) model”), were used.
# To study the effect of the test compounds on skeletal muscle atrophy, the skeletal muscle mass were determined at the end of the study.
# The number of all mice in the population is indicated as “n” in at the bottom of FIGS. 21A-21C.
# The number of all mice in the population is indicated as “n” in at the bottom of FIGS. 20D-20F.
# The number of all mice in the population is indicated as “n” in at the bottom of FIGS. 21G-21I.
# [3] = system: G93A SOD1 B6SJL hybrid (G93A) model; test: Disease progression score (JAX SOP) in G93A SOD1 transgenic mice; conditions: 30 mg/kg/day vs. placebo
# Excerpt: The disease progression score is based on the JAX SOP (Ludolph A C, Bendotti C, Blaugrund E, Hengerer B, Loffler J P, Martin J, Meininger V, Meyer T, Moussaoui S, Robberecht W, Scott S, Silani V, Van Den Berg L H (ENMC Group For The Establishment Of Guidelines For The Conduct Of Preclinical And Proof Of Concept Studies In ALS/MND Models). 2007, which is incorporated by reference).
# [4] = system: G93A SOD1 B6SJL hybrid (G93A) model; test: Body weight and body composition (lean mass, fat mass; NMR scans) in G93A SOD1 transgenic mice; type: in vivo; conditions: 30 mg/kg/d; for Average Δ body weight / Average Δ fat mass / Average Δ lean mass: per day alive after disease onset
# Excerpt: as §1
# […] […] There were 16 mice in the S-oxprenolol group.
# The primary endpoint was survival, humanely defined as the ability of the animal to right itself in 30 seconds after being laid on its side. Secondary endpoints were body weight, body composition, spontaneous activity and food intake. Body weight of the animals was assessed weekly until onset of disease. Additionally, body composition (fat mass and lean body mass) was assessed using NMR scans (EchoMRI-100, Echo Medical Systems, Houston, USA) every 4 days. After onset of disease, body weight and body composition were assessed every two days until the end of the study. All personal handling the animals was strictly blinded to the randomized treatment allocation.
# To study the effect of S-oxprenolol on body weight, body weight was monitored over time.
# To study the effect of the test compounds on lean body mass, lean mass was determined at the end of the study.
# To study the effect of the test compounds on fat mass, the fat mass were determined at the end of the study.
# To study the effect of S-oxprenolol on body weight, body weight was monitored over time. […] The number of all mice in the population is indicated as “n” in at the bottom of FIGS. 20A-20C.
# To study the effect of the test compounds on lean body mass, lean mass was determined at the end of the study. […] The number of all mice in the population is indicated as “n” in at the bottom of FIGS. 20D-20F.
# To study the effect of the test compounds on fat mass, the fat mass were determined at the end of the study. […] The number of all mice in the population is indicated as “n” in at the bottom of FIGS. 20G-20I.
compound,measurement,setting,value
CC(C)NCC(O)COc1cccc2[nH]ccc12 (stereo not shown) [S-pindolol],Median survival after onset of ALS symptoms,[1],31 days
Nc1nc2ccc(OC(F)(F)F)cc2s1 [rilutek],EDL (extensor digitorum longus),[2]; all mice,6.71 ± 0.32 mg
same,soleus,[2]; all mice,5.47 ± 0.39 mg
same,Heart,[2]; all mice,103.5 ± 2.8 mg
same,gastrocnemius,[2]; all mice,55.2 ± 3.0 mg
same,EDL (extensor digitorum longus),[2]; female mice,6.28 ± 039 mg
same,soleus,[2]; female mice,5.26 ± 0.48 mg
same,Heart,[2]; female mice,91.4 ± 2.3 mg
same,gastrocnemius,[2]; female mice,54.1 ± 3.8 mg
same,EDL (extensor digitorum longus),[2]; male mice,7.20 ± 0.51 mg
same,soleus,[2]; male mice,5.72 ± 0.64 mg
same,Heart,[2]; male mice,115.6 ± 2.4 mg
same,gastrocnemius,[2]; male mice,58.3 ± 4.9 mg
same,HR Progression from score 1 to score 2 (FIG. 17),[3],0.82
same,HR Progression from score 1 to score 3 (FIG. 19),[3],0.76
same,HR Progression from score 2 to score 3 (FIG. 18),[3],0.68
same,Δ body weight,[4]; all mice,-5.10 ± 0.35 g
same,Δ fat mass,[4]; all mice,-1.91 ± 0.15 g
same,Δ lean mass,[4]; all mice,-3.71 ± 0.27 g
same,Average Δ body weight,[4]; all mice,-121.6 ± 15.2 mg/day
same,Average Δ fat mass,[4]; all mice,-50.1 ± 6.1 mg/day
same,Average Δ lean mass,[4]; all mice,-92.31 ± 15.84 mg/day
same,Δ body weight,[4]; female mice,-4.49 ± 0.46 g
same,Δ fat mass,[4]; female mice,-1.76 ± 0.21 g
same,Δ lean mass,[4]; female mice,-3.31 ± 0.37 g
same,Average Δ body weight,[4]; female mice,-122.9 ± 25.7 mg/day
same,Average Δ fat mass,[4]; female mice,-42.2 ± 6.1 mg/day
same,Average Δ lean mass,[4]; female mice,-96.9 ± 24.2 mg/day
same,Δ body weight,[4]; male mice,-5.91 ± 0.43 g
same,Δ fat mass,[4]; male mice,-2.09 ± 0.22 g
same,Δ lean mass,[4]; male mice,-4.19 ± 0.38 g
same,Average Δ body weight,[4]; male mice,-120.4 ± 17.9 mg/day
same,Average Δ fat mass,[4]; male mice,-57.5 ± 11.3 mg/day
same,Average Δ lean mass,[4]; male mice,-87.4 ± 21.1 mg/day
